According to patent US20220346382A1, “COMPOSITION FOR TREATING AND PREVENTING BACTERIAL GROWTH ON A SUBSTRATE” (PETROLIAM NASIONAL BERHAD (PETRONAS), priority 2019, published 2022):

How the values were obtained:
[1] = test system: bacteria of produced water sample B04S; test: Viable cell count from suspension cells by hemocytometer (ASTM E 2315-03); assay type: cell-based
Experimental: (§1) Formulations were prepared by mixing the listed chemical components in the stated concentrations with produced water sample BO4S in a flask (Table 1). These formulations were tested in subsequent examples for biocide activity.
In a typical procedure, a glass hemocytometer and coverslip was cleaned with alcohol prior to use. The coverslip was moisturised with water and affixed to the hemocytometer. The presence of Newton's refraction rings under the coverslip indicated proper adhesion.
The flasks containing the formulations were gently swirled to ensure that the cells were evenly distributed. Before the cells settled to the bottom of the flasks, 0.5 mL of a cell suspension was transferred out to an Eppendorf tube using a 5 mL sterile pipette. Trypan blue (three to five drops) was added to the tube. 100 μL of the Trypan blue-treated cell suspension was pipetted and transferred to the hemocytometer. If a glass hemocytometer was used, both chambers were gently filled underneath the coverslip, allowing the cell suspension to be drawn out by capillary action. If a disposable hemocytometer was used, the cell suspension was pipetted into the well of the counting chamber, allowing capillary action to draw it inside. A microscope was used to focus on the grid lines of the hemocytometer with a 10× objective.

[2] = test system: bacteria of produced water sample B04S; test: Cell dry weight of cultured formulations (NACE TM0194-2014); assay type: cell-based; details: Day 7, ambient temperature, static
Text: Bacteria were isolated from produced water samples from an oil field (denoted as samples B04S and B24) in accordance with NACE TM0194-2014.
In sample B04S, Bacillus sp., Bacillus thuringiensis and Marine actinomycetes were identified. In sample B24, Bacillus thuringiensis and Marine actinomycetes were identified. Marine actinomycete was identified to be the main species that support biofilm stability and a growth environment for other species including sulphate-reducing bacteria (SRB).
as §1
The formulations in Example 1 were cultured for seven days at ambient temperatures and static conditions in glass vials. Subsequently the cell dry weight of the formulations was quantified in accordance with NACE TM0194-2014. The cell dry weight for each formulation was reported in and/or converted to g/mL for comparison (FIG. 1).

| Compound | suppression of bacteria growth ([1]; 100 ppm, Day 7) | lower cell dry weight as compared to formulation THPS [2] [%] | lower cell count as compared to THPS only ([1]; Day 5, sample B04S) [%] | lower cell count as compared to THPS only ([1]; Day 7, sample B04S) [%] |
| --- | --- | --- | --- | --- |
| tetrakis hydroxymethyl phosphonium sulfate [THPS, reference compound] | could not suppress bacteria growth |  |  |  |
| N[C@H](Cc1c[nH]c2ccccc12)C(=O)O [TT, D-Tryptophan] |  | 40 | 77 | 78 |
